Assays:
U251 (glioma) cells = assay: Anti-cancer screen (MTT), U251; format: cell-based; conditions: Homo sapiens, U-251, U251, 48 hours, MTT
Procedure, shortened: (§1)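 Cells in DMEM with 10% FBS were seeded for 24 h, then exposed for 48 h to compounds at 0.01, 0.1, 1, 10 and 100 μM final, in triplicate. Viability was read by MTT (3 h, A570 after DMSO solubilisation), referenced to a pre-dosing T0 plate, with SAHA as standard.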

NCIH460 (lung) cells = assay: Anti-cancer screen (MTT), NCIH460; format: cell-based; conditions: Homo sapiens, NCI-H460, NCIH460, 48 hours, MTT
Procedure, shortened: as §1

Acetylated histone (H3) = assay: Histone (H3) acetylation, sandwich ELISA in HCT116 lysate; format: cell-based; conditions: HCT116, 4 hours
Experimental: (§2) Acetylated histone (H3), acetylated Tubulin and p21 levels were detected in cell lysate by sandwich ELISA method (Cell Signaling Technology, USA, Cat No: 7232, 7204 & 7167 respectively) by following manufacturer's instructions. Briefly, colon cancer cells (HCT116. 10,000/well) were incubated with test compound (1 and 10 μM) or medium (control) for 4 hours at 37° C. in CO2 incubator. The incubation lasted 18 hours for p21 induction. After incubation, cell lysates were prepared in cell lysis buffer by sonication on ice. The lysates were collected after centrifugation and subjected to ELISA test procedure. 100 μL of each diluted cell lysate in dilution buffer (1:1) was added to appropriate capture antibody coated microwells and incubated overnight at 4° C. After washing, 100 μL of detection antibody was added for 1 hour at 37° C. After second washing, 100 μL of HRP-linked secondary antibody was added for 30 min at 37° C. Finally, after appropriate washing, 100 μL of TMB substrate was added for 10 min at 37° C. followed by 100 μL of stop solution. The absorbance of individual wells was read using a spectrophotometer at 450 nm (A450).

p21 = p21 induction, sandwich ELISA in HCT116 lysate; format: cell-based; conditions: HCT116, 18 hours
Experimental: as §2

[1] = test system: NCIH460, HCT116 and U251 cells; assay: Anti-cancer screen, mean GI50 over cell lines; format: cell-based; conditions: mean over cell lines; read-out: Cell growth inhibition Mean GI50
Procedure, shortened: as §1

acetylated Tubulin = assay: Tubulin acetylation, sandwich ELISA in HCT116 lysate; format: cell-based; conditions: HCT116, 4 hours
Experimental: as §2

HCT 116 (colon) cells = assay: Anti-cancer screen (MTT), HCT 116; format: cell-based; conditions: Homo sapiens, HCT-116, HCT116, 48 hours, MTT
Procedure, shortened: as §1

[2] = test system: HDAC (Mouse Liver Extract); assay: HDAC inhibition assay using Boc-Lys(Ac)-AMC substrate; format: biochemical; conditions: mouse liver enzyme
Procedure, shortened: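 Boc-Lys(Ac)-AMC substrate incubated with mouse liver extract as HDAC source, 5 min preincubation then 30 min at 37° C. Trypsin stop solution added (37° C., 15-30 min) to release AMC, read at ex 360/em 460 nm; buffer-only and substrate-only wells as blanks.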

recombinant HDAC1 enzyme = recombinant HDAC1 enzyme (Homo sapiens (Human), UniProt Q13547); assay: HDAC1 inhibitory activity (isoform selectivity); format: biochemical; conditions: read-out: HDAC1 inhibition (IC50)
recombinant HDAC1 enzyme, sequence (Q13547 whole entry, canonical isoform): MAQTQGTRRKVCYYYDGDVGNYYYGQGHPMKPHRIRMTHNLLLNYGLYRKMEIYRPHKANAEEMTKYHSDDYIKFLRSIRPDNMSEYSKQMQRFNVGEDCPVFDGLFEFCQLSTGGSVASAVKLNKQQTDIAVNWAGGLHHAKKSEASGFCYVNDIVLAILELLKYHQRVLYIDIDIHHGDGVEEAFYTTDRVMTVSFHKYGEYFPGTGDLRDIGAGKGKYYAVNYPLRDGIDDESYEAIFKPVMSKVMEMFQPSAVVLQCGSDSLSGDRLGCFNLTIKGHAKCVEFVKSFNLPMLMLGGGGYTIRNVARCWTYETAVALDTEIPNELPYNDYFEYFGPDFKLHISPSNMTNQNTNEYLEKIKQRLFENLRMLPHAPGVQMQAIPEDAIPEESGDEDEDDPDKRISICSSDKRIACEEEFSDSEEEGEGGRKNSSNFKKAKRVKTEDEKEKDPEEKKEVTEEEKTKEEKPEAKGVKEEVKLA
Experimental: The assay was carried out, as previously described using recombinant HDAC1 enzyme (BIOMOL, USA) and following manufacturer's instructions.

Work on `COc1ccc(/C=C(/C(=O)NCc2ccc(C(=O)Nc3ccccc3N)cc2)c2ccccc2)cc1OC` [Compound 31, N-(2-Aminophenyl)-4-((3-(3,4-dimethoxyphenyl)-2-phenylacrylamido)methyl)benzamide] yielded a GI50 (U251 (glioma) cells; read-out: Cell growth inhibition U251 (Glioma) GI50) of 3.8 µM, an LC50 (concentration giving 50% net cell kill relative to the time-zero cell count) (U251 (glioma) cells; read-out: Cell growth inhibition U251 (Glioma) LC50) of over 100 µM and an IC (TGI) (U251 (glioma) cells; read-out: Cell growth inhibition U251 (Glioma) TGI) of 50 µM. For the same molecule, the GI50 (NCIH460 (lung) cells; read-out: Cell growth inhibition NCIH460 (Lung) GI50) was 1100 nM, the LC50 (NCIH460 (lung) cells; read-out: Cell growth inhibition NCIH460 (Lung) LC50) was over 100 µM and the IC (TGI) (NCIH460 (lung) cells; read-out: Cell growth inhibition NCIH460 (Lung) TGI) was over 100 µM. The “H3 acetylation (Fold increase)” value (Acetylated histone (H3); 1 μM) was 0.9 Fold increase, the “H3 acetylation (Fold increase)” value (Acetylated histone (H3); 10 μM) was 1.7 Fold increase and the “P21 induction (Fold increase)” value (p21; 1 μM) was 1.2 Fold increase. For the same molecule, the “P21 induction (Fold increase)” value (p21; 10 μM) was 2.8 Fold increase, the GI50 [1] was 1600 nM and the “Tubulin acetylation (Fold increase)” value (acetylated Tubulin; 1 μM) was 1.2 Fold increase. The “Tubulin acetylation (Fold increase)” value (acetylated Tubulin; 10 μM) was 2.1 Fold increase, the GI50 (HCT 116 (colon) cells; read-out: Cell growth inhibition HCT116 (Colon) GI50) was 20 nM and the CC50 (HCT 116 (colon) cells; read-out: Cell growth inhibition HCT116 (Colon) LC50) was over 100 µM. The IC (TGI) (HCT 116 (colon) cells; read-out: Cell growth inhibition HCT116 (Colon) TGI) was 40 µM, the “HDAC inhibition % (1 μM)” value ([2]; 1 μM) was 36.5% and the “HDAC inhibition % (10 μM)” value ([2]; 10 μM) was 65.5%. The IC50 [2] was 7.9 µM and the IC50 (recombinant HDAC1 enzyme) was 54 nM.

Source: patent US8476255B2, “Histone deacetylase inhibitors” (Orchid Chemicals & Pharmaceuticals Limited, priority 2007, dated 2013)
